{"source": "patent US10253085B2", "about": "“CD31 peptides for the treatment of thrombotic or autoimmune disorders” (INSERM (INSTITUT NATIONAL DE LA SANTE ET DE LA RECHERCHE …, priority 2008, dated 2019)", "key": {"[1]": {"tested_on": "C57BL/6J mice immunized with MOG35-55 peptide", "assay": "Experimental Autoimmune Encephalomyelitis (EAE) model", "format": "in vivo, mouse", "protocol": "Twelve-week old female C57BL/6J mice were immunized with 300 μg of MOG35-55 peptide emulsified in Complete Freund's Adjuvant 1:1 by volume containing 800 μg of nonviable desiccated Mycobacterium tuberculosis H37RA. A final volume of 200 μl of the emulsion was injected subcutaneously at 4 sites (50 μl/site) over the flanks. In addition, 300 ng of Pertussis toxin was injected intravenously (retro-orbital plexus) on the same day and 2 days later. Clinical signs of EAE ware assessed daily by the following scoring system: 0, no signs; 1, hindlimb weakness; 2, hindlimb weakness and tail paralysis; 3, hindlimb and tail paralysis; 4, hindlimb and tail paralysis and forelimb weakness; 5, moribund state; and 6, death. The peak (waxing phase) occured around day 21. In this C57BL/6J mouse model, there was no waning phase as assessed in our laboratory up to day 41.\nThe experiment was carried out with ten mice per group. The mice of each group were treating with either of: • PBS; • PepReg (SEQ ID NO: 3); or • PepScra (SEQ ID NO: 14).\nThe dosing was of 50 μg of peptide per mice and per day (i.e. about 2 mg/Kg per day). The peptide was administered by a subcutaneous injection."}, "[2]": {"tested_on": "T-cell activation", "assay": "In vitro inhibition of T-cell activation (summary statements)", "format": "cell-based"}, "[3]": {"tested_on": "CD4+ cells from C57Bl6 mice", "assay": "CD4+ T cell activation, early activation marker CD69 by flow cytometry", "format": "cell-based, mouse", "details": "18 hours culture", "protocol": "Alternatively, the T-cell proliferation assay may comprise comparing expression levels of the early activation marker CD69 in T-cells cultured either in the presence or in the absence of the compound to be tested. This assay may for example be performed as follows: • providing purified CD4+ cells (e.g. purified from C57B16 mice); • stimulating said CD4+ cells by addition of anti-CD3 purified antibodies and bone marrow derived dendritic cells; • culturing the cells for about 18 hours; and • analyzing said cells for the expression of the early activation marker CD69, e.g. by flow cytometry; and • comparing CD69 expression in the presence of the compound to be tested.\nThe immunosuppressive properties of PepReg (10aa) vs the 23 aa parent peptide were evaluated in vitro. Negatively purified CD4+ cells from C57Bl6 mice were stimulated by soluble anti-CD3 purified antibodies and bone marrow derived dendritic cells. Cells from triplicate wells were analyzed for the expression of the early activation marker CD69 after 18 hours culture in complete RPMI medium supplemented with 10% fetal calf serum."}, "[4]": {"tested_on": "T cell proliferation", "assay": "Suppression of T cell proliferation by [H3] thymidin incorporation, long culture", "format": "cell-based, mouse", "details": "culture at 37° C. in 10% serum"}, "[5]": {"tested_on": "spleen cells from C57Bl/6 (CD31^+/+) mice", "assay": "Proliferation in response to TCR stimulation, CD31+/+ spleen cells", "format": "cell-based, mouse", "details": "peptide 25, 50, 100 μM; scramble peptide 100 μM", "protocol": "CD8^+ T cell-mediated cytolytic activity against allogeneic mouse aortic smooth muscle cells and measurement of macrophage gelatinase (MMP-2/9) activity were performed as previously described for human cells in Caligiuri et al. (2006 Arterioscler Thromb Vasc Biol 26:618-623) using kits and reagents from Invitrogen. Briefly, primary cultures of FVB/N mouse aorta smooth muscle cells were labelled with the lipophylic tracer DIO (green) and co-cultured for 3 hours with CD8+ T cell-enriched spleen cells from C57Bl/6 mice (n=3 scramble peptide and n=3 peptide 551-574, 50 μM). Cytolysis was evaluated by intracellular accumulation of propidium iodide (PI). Cells were analysed by flow cytometry and the % of cytolysis was calculated by expressing the number of dead (PI+) cells among the target (DIO+) cells. Intracellular MMP-2/9 (gelatinase) activity was measured by flow cytometry in 7-day bone-marrow derived macrophages from C57Bl/6 mice (n=3 scramble peptide and n=3 peptide 551-574, 50 μM) three hours after the incorporation of OregonGreen® gelatine (MFI). T-cell proliferation was performed using either human peripheral blood mononuclear cells of spleen cells from C57Bl/6 (CD31^+/+) and CD31^−/− mice (Charles River France) as previously described (Caligiuri et al. 2005 Arterioscler Thromb Vasc Biol 25:1659-1664). Briefly, cells were plated in triplicates at 0.2×10^6 cells/well in a U bottom 96-well plate in complete medium (RPMI 1640, 1% pyruvate, 1% glutamine, 1% penicillin-streptomicyne-fungizone, 10% decomplemented fetal calf serum, all from Invitrogen) containing 1 μg/ml anti-mouse CD3/CD28 or 5 μg/ml anti-human CD3 antibodies (BD) as appropriate. CD31 (551-574) and scramble peptide at 25, 50 and 100 μM final concentration were deposited in the wells just before cell plating. Plated cells were cultured for 72 hours in 5% CO2 at 37° C. (^3H) thymidine (0.5 μCi/well) was added for the last 16 hours and proliferation evaluated using a Tomtec harvester and analysis on a Wallac micro beta counter. Data are expressed as mean±SEM of cpm in triplicates."}, "[6]": {"tested_on": "BALB/c mice primed with TNCB", "assay": "Delayed type hypersensitivity (DTH) suppression model", "format": "in vivo, mouse", "details": "single subcutaneous administration; peptide 10, 50, 100 μM; scramble 100 μM", "protocol": "Delayed type hypersensitivity (DTH) suppression was evaluated as described in the “Current Protocols in Immunology (2001) 4.0.1-4.0.2 Unit 4.2”. Briefly, TNCB (2-chloro-1,3,5-trinitrobenzene, Fluka #79874) was dissolved in acetone/olive oil (1:1 v/v) at a concentration of 10 mg/ml. BALB/c mice (n=6/group) were primed by painting the shaved regions of the abdomen a with a total 0.2 ml of the preparation (n=6/group). The experiment included 3 groups for peptide 551-574 (10, 50, 100 μM) and 1 group treated with scramble peptide at 100 μM). Five days after priming, 10 μl of the TNCB-solvent mixture was painted on the right pinna, 30 minutes after subcutaneous (interscapolar) administration of the peptide 551-574 or the scramble peptide. Ear thickness increases were calculated by subtracting the thickness of the right and the left pinna of each mouse (right-left/left×100), measured at 24 h with a dial caliper (“Pocotest”, Kroeplin Längenmesstechnick). The measure was performed 5 times on each ear and averaged for further analysis. The immunosuppressive effect of the peptide was calculated as % suppression=(1−ΔTE/ΔTS)×100, where ΔT=(ear thickness 24 hr after elicitation)−(baseline ear thickness), […]. Data are expressed as mean±SEM."}, "[7]": {"details": "associated with disease protection"}}, "note": "“Also recorded” adds a separate entry of the source."}
{"substance": "VRVFLAPWKK (mouse-derived CD31 peptide) [PepReg, ten COOH terminal amino acids of mouse CD31 peptide]", "values": [{"measurement": "infiltration of IL17+ and IFNg+ T helper CD4+ cells in the central nervous system", "setting": "[1]; [7]", "value": "reduced infiltration"}, {"measurement": "proportion of regulatory CD25+/foxP3 CD4+ cells in the central nervous system", "setting": "[1]; [7]", "value": "increased proportion"}, {"measurement": "clinical score of EAE activity (paralysis level)", "setting": "[1]; plateau phase (Days 21 through to 35), 50 μg per mice per day subcutaneous", "value": "reducing disease extension"}, {"measurement": "clinical score of EAE activity (paralysis level)", "setting": "[1]; waxing phase (Day 15), 50 μg per mice per day subcutaneous", "value": "arresting disease development"}, {"measurement": "inhibition of T-cell activation", "setting": "[2]", "value": "capable of inhibiting T-cell activation"}, {"measurement": "dose at which suppression of CD69 expression was observed", "setting": "[3]", "value": 50, "unit": "µg/mL"}, {"measurement": "suppression of T cell activation (percentage of CD4 cells expressing CD69)", "setting": "[3]; anti-CD3 and dendritic cells", "value": "at least as efficient as the 23aa peptide"}, {"measurement": "persistence of suppression of T cell proliferation", "setting": "[4]", "value": "up to 7 days"}]}
{"substance": "scrambled peptide: scramble peptide of SEQ ID NO: 14 used as control for PepReg; sequence not printed (WPKLRKFVAV; scramble peptide) [reference compound]", "values": [{"measurement": "beneficial effect in EAE model", "setting": "[1]; 50 μg per mice per day subcutaneous", "value": "beneficial, although less than PepReg"}]}
{"substance": "LAPWKK (mouse or human-derived CD31 peptide) [SEQ ID NO: 2]", "values": [{"measurement": "inhibition of T-cell activation", "setting": "[2]", "value": "capable of inhibiting T-cell activation"}]}
{"substance": "NH2 - SMPAVRSRFSATSLVTLKSRWPK -COOH (H-SMPAVRSRFSATSLVTLKSRWPK-OH) [scramble peptide, scramble peptide used as control for the 23-mer, reference compound]", "values": [{"measurement": "proliferation of CD31+/+ spleen cells in response to TCR stimulation", "setting": "[5]", "value": "No effect; also recorded: ineffective"}, {"measurement": "suppression of distal recall of a hapten-elicited specific immune response (ear thickness)", "setting": "[6]", "value": "ineffective"}]}
